Results: publication PMC5085761 (International Journal of Molecular Sciences, 2016)

What was measured:
OAT3 = target: T1, OAT3 (Homo sapiens, UniProt Q8TCC7); assay: Inhibition of tracer uptake in OAT3-expressing cells; type: in vitro ADME
T1 construct: host or cells: HEK293
T1 sequence (Q8TCC7 1-542): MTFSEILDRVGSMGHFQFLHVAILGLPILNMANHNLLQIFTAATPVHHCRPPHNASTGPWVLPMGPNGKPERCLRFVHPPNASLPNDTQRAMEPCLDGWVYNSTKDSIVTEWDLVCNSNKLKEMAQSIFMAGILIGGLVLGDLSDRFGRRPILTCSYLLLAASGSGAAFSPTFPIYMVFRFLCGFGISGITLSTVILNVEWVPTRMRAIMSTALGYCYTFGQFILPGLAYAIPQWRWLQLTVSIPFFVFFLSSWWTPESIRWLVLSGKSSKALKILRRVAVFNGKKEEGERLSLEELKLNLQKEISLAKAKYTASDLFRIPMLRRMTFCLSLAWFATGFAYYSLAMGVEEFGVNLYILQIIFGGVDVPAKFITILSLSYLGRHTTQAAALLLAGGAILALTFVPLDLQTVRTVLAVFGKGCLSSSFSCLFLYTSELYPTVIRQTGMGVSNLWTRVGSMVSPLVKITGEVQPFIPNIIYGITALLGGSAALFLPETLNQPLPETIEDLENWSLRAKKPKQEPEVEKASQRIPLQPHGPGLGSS
Procedure: For the SLC transporter experiments, Mock Flp-in-293 cells (Flp/mock), OAT1-expressing Flp-in-293 cells (Flp/OAT1), mock HEK293 cells (HEK/mock), and OATP1B3-expressing HEK293 cells (HEK/OATP1B3) were obtained from Kanazawa University (Ishikawa, Japan). Briefly, Flp-in-293 and HEK293 cells were transfected with the appropriate plasmid DNA and selected using antibiotics (hygromycin or G-418). All cell lines were cultured in DMEM (Life Technologies Japan) supplemented with 10% (v/v) fetal bovine serum (American Type Culture Collection) and antibiotics (100 U/mL penicillin and 100 μg/mL streptomycin (Life Technologies Japan) for mock cells, 0.2 mg/mL hygromycin for Flp/OAT1 cells, and 1.2 mg/mL G-418 (Roche Diagnostics K.K., Tokyo, Japan) for HEK/OATP1B3 cells) at 37 °C under an atmosphere containing 5% CO2. […]
The experiments were performed as described previously, with minor modifications. […] The cells were lysed in 0.3 mL of 0.1N NaOH at room temperature, after which the radioactivity of each aliquot was measured as described above. The protein concentration of the cell lysate was determined with a VersaMax microplate reader (Molecular Devices Japan K.K., Osaka, Japan) or SpectraMax i3x (Molecular Devices Japan K.K.; only for OATP1B1) using a BCA Protein Assay Kit (Thermo Fisher Scientific, Kanagawa, Japan). Tracer uptake was expressed as pmol/mg protein. […]

human BCRP = target: T2, human BCRP (Homo sapiens, UniProt Q9UNQ0); assay: [14C]fluciclovine uptake by BCRP-expressing inside-out vesicles; type: in vitro ADME
T2 construct: purchased GenoMembrane Co., Ltd. (Kanagawa, Japan); host or cells: Sf9
T2 sequence (Q9UNQ0 1-655): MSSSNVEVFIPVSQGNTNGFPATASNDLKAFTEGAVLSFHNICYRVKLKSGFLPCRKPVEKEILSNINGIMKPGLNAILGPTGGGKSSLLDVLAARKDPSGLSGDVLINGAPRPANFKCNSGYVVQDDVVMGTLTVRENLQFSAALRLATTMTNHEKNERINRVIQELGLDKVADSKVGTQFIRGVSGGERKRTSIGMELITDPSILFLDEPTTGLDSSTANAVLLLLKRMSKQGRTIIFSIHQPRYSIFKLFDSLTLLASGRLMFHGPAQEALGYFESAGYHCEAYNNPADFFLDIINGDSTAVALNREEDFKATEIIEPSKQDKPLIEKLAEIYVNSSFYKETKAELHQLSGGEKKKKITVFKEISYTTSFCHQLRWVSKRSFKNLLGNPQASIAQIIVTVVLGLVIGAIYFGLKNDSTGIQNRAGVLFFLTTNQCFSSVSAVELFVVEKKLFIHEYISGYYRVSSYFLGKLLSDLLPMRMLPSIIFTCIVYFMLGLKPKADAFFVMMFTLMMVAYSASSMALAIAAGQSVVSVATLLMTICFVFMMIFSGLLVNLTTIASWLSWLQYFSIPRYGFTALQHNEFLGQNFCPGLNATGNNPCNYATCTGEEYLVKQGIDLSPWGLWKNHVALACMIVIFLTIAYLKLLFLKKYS
Procedure: For ABC transporters, experimental kits containing Sf9-derived vesicles with high expression levels of human P-gp, MRP4, BCRP, and each ABC transporter (including buffer, ATP/AMP solution, and glutathione) were purchased from GenoMembrane Co., Ltd. (Kanagawa, Japan).
Vesicular transport assays were carried out according to the manufacturer’s protocol. […] The reaction was started by suspending 50 μg of vesicles (10 μL) in 40 μL of the reaction buffer. After incubation for an appropriate period of time, the reaction was stopped by the addition of ice-cold stop buffer (40 mM MOPS-Tris and 70 mM KCl; pH 7.0), after which the solution was filtered through a 0.45 μm HA filter (Millipore Corp., Billerica, MA, USA) using suction, and was washed twice in 5 mL of ice-cold stop buffer. The radioactivity of the filter was measured with a Tri-Carb 2910TR liquid scintillation counter (PerkinElmer) using Ultima Gold (PerkinElmer). The amount of tracer uptake was normalized to the membrane protein amount described in the product information sheets.

| inhibition by fluciclovine at millimolar concentrations observed (OAT3; OAT3, tracer [3H]ES 1 µM, 100 µM–10 mM fluciclovine) | OAT3-mediated ES uptake (OAT3; in the presence of 10 mM fluciclovine) | SMILES | uptake compared with control vesicles (human BCRP) |
| --- | --- | --- | --- |
| not | increased | N[C@]1(C(=O)O)C[C@@H](F)C1 [fluciclovine] |  |
|  |  | N[14C]1(C(=O)O)CC(F)C1 (stereo not drawn) [[^14C]fluciclovine, trans-1-amino-3-fluoro[1-^14C]cyclobutanecarboxylic acid] | reduced in comparison to that of the control vesicles, albeit not significantly |
